{
  "source": "ChEMBL document CHEMBL1153245",
  "about": "“A profile of the in vitro anti-tumor activity of imidazolium-based ionic liquids” (2010)",
  "assay_type_in_all_cases": "functional",
  "key": {"HCT-116": {"test_system": "HCT-116", "assay": "Anticancer activity against human HCT116 cells after 48 hrs by sulforhodamine B assay"}, "M14": {"test_system": "M14", "assay": "Anticancer activity against human M14 cells after 48 hrs by sulforhodamine B assay"}, "NCI/ADR-RES": {"test_system": "NCI/ADR-RES", "assay": "Anticancer activity against human NCI/ADR-RES cells after 48 hrs by sulforhodamine B assay"}, "786-0": {"test_system": "786-0", "assay": "Anticancer activity against human 786-0 cells after 48 hrs by sulforhodamine B assay"}, "SNB-75": {"test_system": "SNB-75", "assay": "Anticancer activity against human SNB75 cells after 48 hrs by sulforhodamine B assay"}, "LOX IMVI": {"test_system": "LOX IMVI", "assay": "Anticancer activity against human LOXIMVI cells after 48 hrs by sulforhodamine B assay"}, "PC-3": {"test_system": "PC-3", "assay": "Anticancer activity against human PC3 cells after 48 hrs by sulforhodamine B assay"}, "SW-620": {"test_system": "SW-620", "assay": "Anticancer activity against human SW620 cells after 48 hrs by sulforhodamine B assay"}, "OVCAR-3": {"test_system": "OVCAR-3", "assay": "Anticancer activity against human OVCAR-3 cells after 48 hrs by sulforhodamine B assay"}, "HOP-92": {"test_system": "HOP-92", "assay": "Anticancer activity against human HOP92 cells after 48 hrs by sulforhodamine B assay"}, "CCRF-CEM": {"test_system": "CCRF-CEM", "assay": "Anticancer activity against human CCRF-CEM cells after 48 hrs by sulforhodamine B assay"}, "[1]": {"assay": "Anticancer activity against human Hs 578T cells after 48 hrs by sulforhodamine B assay"}, "HOP-62": {"test_system": "HOP-62", "assay": "Anticancer activity against human HOP62 cells after 48 hrs by sulforhodamine B assay"}, "CAKI-1": {"test_system": "CAKI-1", "assay": "Anticancer activity against human Caki1 cells after 48 hrs by sulforhodamine B assay"}, "HCC 2998": {"test_system": "HCC 2998", "assay": "Anticancer activity against human HCC2998 cells after 48 hrs by sulforhodamine B assay"}, "KM12": {"test_system": "KM12", "assay": "Anticancer activity against human KM12 cells after 48 hrs by sulforhodamine B assay"}, "OVCAR-5": {"test_system": "OVCAR-5", "assay": "Anticancer activity against human OVCAR5 cells after 48 hrs by sulforhodamine B assay"}, "SF-268": {"test_system": "SF-268", "assay": "Anticancer activity against human SF268 cells after 48 hrs by sulforhodamine B assay"}, "SNB-19": {"test_system": "SNB-19", "assay": "Anticancer activity against human SNB19 cells after 48 hrs by sulforhodamine B assay"}, "UO-31": {"test_system": "UO-31", "assay": "Anticancer activity against human UO31 cells after 48 hrs by sulforhodamine B assay"}, "TK-10": {"test_system": "TK-10", "assay": "Anticancer activity against human TK10 cells after 48 hrs by sulforhodamine B assay"}, "COLO 205": {"test_system": "COLO 205", "assay": "Anticancer activity against human COLO205 cells after 48 hrs by sulforhodamine B assay"}, "BT-549": {"test_system": "BT-549", "assay": "Anticancer activity against human BT549 cells after 48 hrs by sulforhodamine B assay"}, "T47D": {"test_system": "T47D", "assay": "Anticancer activity against human T47D cells after 48 hrs by sulforhodamine B assay"}, "K562": {"test_system": "K562", "assay": "Anticancer activity against human K562 cells after 48 hrs by sulforhodamine B assay"}, "U-251": {"test_system": "U-251", "assay": "Anticancer activity against human U251 cells after 48 hrs by sulforhodamine B assay"}, "DU-145": {"test_system": "DU-145", "assay": "Anticancer activity against human DU145 cells after 48 hrs by sulforhodamine B assay"}, "SN12C": {"test_system": "SN12C", "assay": "Anticancer activity against human SN12C cells after 48 hrs by sulforhodamine B assay"}, "SK-MEL-28": {"test_system": "SK-MEL-28", "assay": "Anticancer activity against human SK-MEL-28 cells after 48 hrs by sulforhodamine B assay"}, "Malme-3M": {"test_system": "Malme-3M", "assay": "Anticancer activity against human MALME-3M cells after 48 hrs by sulforhodamine B assay"}, "[2]": {"details": "read-out: LC50 (the source's name)"}},
  "data": [
    {"smiles": "CCCCCCCCCCCCCCCCCC[n+]1ccn(C)c1.F[P-](F)(F)(F)(F)F", "values": [
      {"measurement": "GI50", "setting": "HCT-116", "result": 411, "unit": "nM"},
      {"measurement": "GI50", "setting": "M14", "result": 424, "unit": "nM"},
      {"measurement": "LC50 (50% lethal concentration)", "setting": "M14", "result": 6250, "unit": "nM"},
      {"measurement": "GI50", "setting": "NCI/ADR-RES", "result": 1450, "unit": "nM"},
      {"measurement": "GI50", "setting": "786-0", "result": 1250, "unit": "nM"},
      {"measurement": "LC50 (50% lethal concentration)", "setting": "786-0", "result": 8580, "unit": "nM"},
      {"measurement": "GI50", "setting": "SNB-75", "result": 991, "unit": "nM"},
      {"measurement": "CC50", "setting": "SNB-75; [2]", "result": 6500, "unit": "nM"},
      {"measurement": "GI50", "setting": "LOX IMVI", "result": 385, "unit": "nM"},
      {"measurement": "CC50", "setting": "LOX IMVI; [2]", "result": 3840, "unit": "nM"},
      {"measurement": "GI50", "setting": "PC-3", "result": 286, "unit": "nM"},
      {"measurement": "CC50", "setting": "PC-3; [2]", "result": 3540, "unit": "nM"},
      {"measurement": "GI50", "setting": "SW-620", "result": 519, "unit": "nM"},
      {"measurement": "LC50", "setting": "SW-620", "result": 4320, "unit": "nM"},
      {"measurement": "GI50", "setting": "OVCAR-3", "result": 453, "unit": "nM"},
      {"measurement": "LC50 (50% lethal concentration)", "setting": "OVCAR-3", "result": 4390, "unit": "nM"},
      {"measurement": "GI50", "setting": "HOP-92", "result": 927, "unit": "nM"},
      {"measurement": "CC50", "setting": "HOP-92; [2]", "result": 6680, "unit": "nM"},
      {"measurement": "GI50", "setting": "CCRF-CEM", "result": 129, "unit": "nM"},
      {"measurement": "LC50", "setting": "CCRF-CEM", "result": 980, "unit": "nM"},
      {"measurement": "GI50", "setting": "[1]", "result": 536, "unit": "nM"},
      {"measurement": "CC50", "setting": "[1]; [2]", "result": 6150, "unit": "nM"},
      {"measurement": "GI50", "setting": "HOP-62", "result": 1450, "unit": "nM"},
      {"measurement": "CC50", "setting": "HOP-62; [2]", "result": 7770, "unit": "nM"},
      {"measurement": "GI50", "setting": "CAKI-1", "result": 791, "unit": "nM"},
      {"measurement": "LC50", "setting": "CAKI-1", "result": 8900, "unit": "nM"},
      {"measurement": "GI50", "setting": "HCC 2998", "result": 293, "unit": "nM"},
      {"measurement": "CC50", "setting": "HCC 2998; [2]", "result": 5860, "unit": "nM"},
      {"measurement": "GI50", "setting": "KM12", "result": 471, "unit": "nM"},
      {"measurement": "CC50", "setting": "KM12; [2]", "result": 4000, "unit": "nM"},
      {"measurement": "GI50", "setting": "OVCAR-5", "result": 1080, "unit": "nM"},
      {"measurement": "CC50", "setting": "OVCAR-5; [2]", "result": 7240, "unit": "nM"},
      {"measurement": "GI50", "setting": "SF-268", "result": 1260, "unit": "nM"},
      {"measurement": "CC50", "setting": "SF-268; [2]", "result": 6060, "unit": "nM"},
      {"measurement": "GI50", "setting": "SNB-19", "result": 1450, "unit": "nM"},
      {"measurement": "CC50", "setting": "SNB-19; [2]", "result": 7890, "unit": "nM"},
      {"measurement": "GI50", "setting": "UO-31", "result": 657, "unit": "nM"},
      {"measurement": "LC50", "setting": "UO-31", "result": 5350, "unit": "nM"},
      {"measurement": "GI50", "setting": "TK-10", "result": 463, "unit": "nM"},
      {"measurement": "LC50", "setting": "TK-10", "result": 4760, "unit": "nM"},
      {"measurement": "GI50", "setting": "COLO 205", "result": 389, "unit": "nM"},
      {"measurement": "GI50", "setting": "BT-549", "result": 1290, "unit": "nM"},
      {"measurement": "CC50", "setting": "BT-549; [2]", "result": 6910, "unit": "nM"},
      {"measurement": "GI50", "setting": "T47D", "result": 719, "unit": "nM"},
      {"measurement": "GI50", "setting": "K562", "result": 935, "unit": "nM"},
      {"measurement": "GI50", "setting": "U-251", "result": 482, "unit": "nM"},
      {"measurement": "CC50", "setting": "U-251; [2]", "result": 4200, "unit": "nM"},
      {"measurement": "GI50", "setting": "DU-145", "result": 1020, "unit": "nM"},
      {"measurement": "CC50", "setting": "DU-145; [2]", "result": 4680, "unit": "nM"},
      {"measurement": "GI50", "setting": "SN12C", "result": 1200, "unit": "nM"},
      {"measurement": "LC50", "setting": "SN12C", "result": 5280, "unit": "nM"},
      {"measurement": "LC50", "setting": "SK-MEL-28", "result": 5160, "unit": "nM"},
      {"measurement": "GI50", "setting": "Malme-3M", "result": 1020, "unit": "nM"},
      {"measurement": "LC50 (concentration killing 50% of cells)", "setting": "Malme-3M", "result": 7690, "unit": "nM"}
    ]}
  ]
}
